Experimental data as given in article PMC11189555, “Aryl amino acetamides prevent Plasmodium falciparum ring development via targeting the lipid-transfer protein PfSTART1” (Nature Communications, 2024).
Where “and” joins values, the source holds several entries; their conditions need not be identical. Equal entries are not always repeated.

Assays:
[1] = tested on: processed PfSTART1 (proc1, proc2) in schizonts; assay: Processing of PfSTART1 along schizogony with egress inhibitors (Western blot densitometry); format: cell-based, Plasmodium falciparum; settings: for Normalised by EXP2: START full length / Normalised by EXP2: START processed 1 / Normalised by EXP2: START processed 2 / Normalised by EXP2 and full length: START processed 1 / Normalised by EXP2 and full length: START processed 2 / Raw densitometry: START full length / Raw densitometry: START processed 1 / Raw densitometry: START processed 2: biological replicates 1-5
Experimental: Magnet-purified schizonts were harvested after a 4 h treatment with the following: DMSO (0.1%), 49c (10 nM), C1 (1.5 μM) or E64 (10 μM). Parasites were washed in ice-cold PBS + PI (centrifugation steps carried out at 4 °C at 3,000 g). Samples were resuspended in NRSB, sonicated, boiled 10 min at 80 °C and separated by electrophoresis as explained previously. The parasites used in this experiment were 3D7 transfected with p1.2-ABH(WT)-83-HA-glmS, i.e. parasites containing a recodonised version of PF3D7_0403800 within its genome. […]
(DMSO). Schizonts were saponin -lysed. (E) Synchronised 3D7 schizonts were magnet-purified, stalled at different stages of egress: 4 h with 10 nM 49c (plasmepsin X inhibitor), 1.5 µM compound 1 (C1; PKG inhibitor), 10 µM E64, or allowed to progress (DMSO). Whole cells were harvested. PEXEL-cleaved, and the two further processed forms of PfSTART1 are indicated by solid and empty arrows respectively.
(F) Densitometry of processed PfSTART1 (proc1 and proc2) was normalised to the corresponding PEXEL-cleaved PfSTART1. n=10 replicates (n=6 for the 49c treatment). Two-way ANOVA with Šídák's multiple comparisons test (compare each

[2] = tested on: P. berghei sporozoites invading HC-04 human liver cells; assay: In vitro liver invasion assay; format: cell-based, Plasmodium berghei; settings: Replicate 1 and 2
Experimental: P. berghei ANKA constitutively expressing mCherry[82] was used for the in vitro liver stage invasion assay. Animals used for the generation of the sporozoites were 4- to 5-week-old male Swiss Webster mice and were purchased from the Monash Animal Services (Melbourne, Victoria, Australia) and housed at 22 to 25 °C on a 12 h light/dark cycle with 40-70% humidity at the School of Biosciences, The University of Melbourne, Australia. All animal experiments were in accordance with the Prevention of Cruelty to Animals Act 1986, the Prevention of Cruelty to Animals Regulations 2008, and National Health and Medical Research Council (2013) Australian code for the care and use of animals for scientific purposes. These experiments were reviewed and permitted by the Melbourne University Animal Ethics Committee (2015123).
Infections of naïve Swiss mice were carried out by intraperitoneal (IP) inoculation obtained from a donor mouse between the first and fourth passages from cryopreserved stock. Parasitemia was monitored by Giemsa smear and exflagellation quantified 3 days post-infection. A. stephensi mosquitoes were allowed to feed on anaesthetised mice once the exflagellation rate was assessed between about 12 to 15 exflagellation events per 1 × 10^4 RBCs. Salivary glands of infected mosquitoes (days 17 to 24 post-infection) were isolated by dissection and parasites placed into RPMI-1640 media.
This was performed essentially as described[83] with the minor variations outlined in the Supplementary Information. […]
In vitro liver invasion assays. This was performed essentially as described16 with the following variations. In vitro human liver HCO4 cells (ATCC) were seeded at 1 × 10^5 cells/mL, grown for 24 h and then infected for 2 h with 30,000 Pb ANKA mCherry […]
expressing sporozoites. Following fixation, an IFA with anti -CSP antibody (1:500) followed by anti-mouse Alexafluor 488 (1:1 ,000; Invitrogen, Carlsbad, CA, USA) labels uninvaded parasites. Fluorescence signal was assessed using an Olympus CKX41 epifluorescence microscope. […]
Gametogenesis was then triggered by the addition of 10 μL ookinete medium (gametocyte culture medium supplemented with 100 μM xanthurenic acid and 0.27 µg/mL Cy3-labelled anti-Pfs25 antibody) to each well at room temperature. Plates were then cooled on a metal block at 4°C for four min to ensure even cooling and then stabilised for a further 4 min at 28°C. At 20 min post-induction, male gametogenesis was recorded in each well by automated brightfield microscopy using a x4 objective lens and 1.5x magnifier (x6 effective magnification). Afterward, plates were incubated in the dark at room temperature for 24 h and then female gametogenesis recorded in each well by automated fluorescence microscopy (anti-Pfs25-positive cells). All experiments were performed in quadruplicate with DMSO and cabamiquine (DDD107498)17 as negative and positive controls respectively. All data was evaluated in comparison to the positive and negative controls to calculate percentage inhibition of male and female gametocytes, and dose response analysis and IC50 calculation performed using GraphPad Prism. […]
The pellet was subjected to five

[3] = schizonts treated 4 h: 49c 10 nM, C1 1.5 μM, E64 10 μM, vs DMSO and other treatments

`CC(C)C[C@H](NC(=O)[C@H]1O[C@@H]1C(=O)O)C(=O)NCCCCN=C(N)N` [E64] was tested, and the “Normalised by EXP2: START full length” value ([1]; BLOT AMA1, '+' lane) was 9.91E+01 and 2.44E+01 and 1.44E+02 and 6.49E+01 and 9.10E+02, the “Normalised by EXP2: START processed 1” value ([1]; BLOT AMA1, '+' lane) was 5.50E+01 and 7.11E+00 and 4.58E+01 and 1.53E+01 and 3.44E+02 and the “Normalised by EXP2: START processed 2” value ([1]; BLOT AMA1, '+' lane) was 9.13E+01 and 1.13E+01 and 7.80E+01 and 1.03E+01 and 3.88E+02. For the same compound, the “Normalised by EXP2 and full length: START processed 1” value ([1]; BLOT AMA1, '+' lane) was 5.54E+01 and 2.91E+01 and 3.18E+01 and 2.36E+01 and 3.78E+01, the “Normalised by EXP2 and full length: START processed 2” value ([1]; BLOT AMA1, '+' lane) was 9.21E+01 and 4.63E+01 and 5.42E+01 and 1.59E+01 and 4.26E+01 and the “Raw densitometry: START full length” value ([1]; BLOT AMA1, '+' lane) was 9.54 and 2.49E+01 and 26.4 and 2.01E+01 and 2.02E+01. The “Raw densitometry: START processed 1” value ([1]; BLOT AMA1, '+' lane) was 2.78 and 7.92E+00 and 6.24 and 7.59E+00 and 1.12E+01, the “Raw densitometry: START processed 2” value ([1]; BLOT AMA1, '+' lane) was 4.42 and 1.35E+01 and 4.19 and 8.56E+00 and 1.86E+01 and the “Normalised by EXP2: START full length” value ([1]; BLOT AMA1, '-' lane) was 1.05E+02 and 2.53E+01 and 1.75E+02 and 7.60E+01 and 6.88E+02. The “Normalised by EXP2: START processed 1” value ([1]; BLOT AMA1, '-' lane) was 6.93E+01 and 7.41E+00 and 5.19E+01 and 1.82E+01 and 2.72E+02, the “Normalised by EXP2: START processed 2” value ([1]; BLOT AMA1, '-' lane) was 9.19E+01 and 9.39E+00 and 9.29E+01 and 7.65E+00 and 2.73E+02 and the “Normalised by EXP2 and full length: START processed 1” value ([1]; BLOT AMA1, '-' lane) was 6.61E+01 and 2.93E+01 and 2.98E+01 and 2.39E+01 and 3.96E+01. The “Normalised by EXP2 and full length: START processed 2” value ([1]; BLOT AMA1, '-' lane) was 8.76E+01 and 3.72E+01 and 5.32E+01 and 1.01E+01 and 3.96E+01, the “Raw densitometry: START full length” value ([1]; BLOT AMA1, '-' lane) was 8.29 and 2.80E+01 and 29.3 and 1.80E+01 and 2.42E+01 and the “Raw densitometry: START processed 1” value ([1]; BLOT AMA1, '-' lane) was 2.43 and 8.33E+00 and 7.01 and 7.12E+00 and 1.60E+01. The “Raw densitometry: START processed 2” value ([1]; BLOT AMA1, '-' lane) was 3.08 and 1.49E+01 and 2.95 and 7.13E+00 and 2.12E+01, the “Normalised by EXP2: START full length” value ([1]; BLOT Rh5, '+' lane) was 7.41E+01 and 1.24E+02 and 2.65E+01 and 1.82E+02 and 1.65E+02 and the “Normalised by EXP2: START processed 1” value ([1]; BLOT Rh5, '+' lane) was 5.05E+01 and 4.02E+01 and 7.30E+00 and 3.75E+01 and 7.40E+01. For the same compound, the “Normalised by EXP2: START processed 2” value ([1]; BLOT Rh5, '+' lane) was 7.26E+01 and 3.45E+01 and 1.15E+01 and 3.53E+01 and 8.50E+01, the “Normalised by EXP2 and full length: START processed 1” value ([1]; BLOT Rh5, '+' lane) was 6.81E+01 and 3.26E+01 and 2.75E+01 and 2.05E+01 and 4.47E+01 and the “Normalised by EXP2 and full length: START processed 2” value ([1]; BLOT Rh5, '+' lane) was 9.79E+01 and 2.79E+01 and 4.33E+01 and 1.93E+01 and 5.14E+01. The “Raw densitometry: START full length” value ([1]; BLOT Rh5, '+' lane) was 12.9 and 1.34E+01 and 3.87E+01 and 2.57E+01 and 1.42E+01, the “Raw densitometry: START processed 1” value ([1]; BLOT Rh5, '+' lane) was 4.2 and 3.69E+00 and 7.95E+00 and 1.15E+01 and 9.67E+00 and the “Raw densitometry: START processed 2” value ([1]; BLOT Rh5, '+' lane) was 3.6 and 5.80E+00 and 7.48E+00 and 1.32E+01 and 1.39E+01. For the same compound, the “Normalised by EXP2: START full length” value ([1]; BLOT Rh5, '-' lane) was 8.04E+01 and 1.20E+02 and 3.28E+01 and 2.15E+02 and 2.08E+02, the “Normalised by EXP2: START processed 1” value ([1]; BLOT Rh5, '-' lane) was 5.15E+01 and 3.77E+01 and 7.46E+00 and 4.92E+01 and 7.28E+01 and the “Normalised by EXP2: START processed 2” value ([1]; BLOT Rh5, '-' lane) was 6.74E+01 and 3.23E+01 and 1.26E+01 and 2.81E+01 and 6.72E+01. The “Normalised by EXP2 and full length: START processed 1” value ([1]; BLOT Rh5, '-' lane) was 6.41E+01 and 3.14E+01 and 2.27E+01 and 2.28E+01 and 3.49E+01, the “Normalised by EXP2 and full length: START processed 2” value ([1]; BLOT Rh5, '-' lane) was 8.38E+01 and 2.69E+01 and 3.85E+01 and 1.30E+01 and 3.22E+01 and the “Raw densitometry: START full length” value ([1]; BLOT Rh5, '-' lane) was 9.62 and 1.50E+01 and 4.00E+01 and 3.32E+01 and 1.67E+01. The “Raw densitometry: START processed 1” value ([1]; BLOT Rh5, '-' lane) was 3.02 and 3.41E+00 and 9.14E+00 and 1.16E+01 and 1.07E+01, the “Raw densitometry: START processed 2” value ([1]; BLOT Rh5, '-' lane) was 2.59 and 5.78E+00 and 5.21E+00 and 1.07E+01 and 1.40E+01 and the “level of PfSTART1proc1 normalised to PEXEL-cleaved PfSTART1” value [1, 3] was “contained most of both processed bands”. The “level of PfSTART1proc2 normalised to PEXEL-cleaved PfSTART1” value [1, 3] was “significant enrichment in PfSTART1proc2”.

In the case of `C=C1[C@@H](C)[C@H]2[C@H](Cc3ccccc3)NC(=O)[C@]23[C@H](OC(C)=O)/C=C/[C@@](C)(O)C(=O)[C@@H](C)C/C=C/[C@H]3[C@@H]1O` [cytD, cytochalasin D, reference compound], the “Liver stage invasion assay: in” value ([2]; count of sporozoites inside cells) is reported as 2, the “Liver stage invasion assay: out” value ([2]; count of sporozoites outside cells) is reported as 118 and 305 and the “Liver stage invasion assay: ratio” value ([2]; in relative to in + out) is reported as 1.667 and 0.6515.
